Measured values from the supplement of paper PMC10307832.

How the values were obtained:
Assay in all cases: relative viability (nuclei count vs DMSO), 5 days (fraction); higher = more cells survive
[1] = compound: CS(=O)(=O)N1CCN(Cc2cc3nc(-c4cccc5[nH]ncc45)nc(N4CCOCC4)c3s2)CC1 [Pictilisib] + C[C@]1(O)C[C@@H](c2nc(-c3ccc4ccc(-c5ccccc5)nc4c3)c3c(N)nccn32)C1 [Linsitinib] (partner 1 µM)
Outline: (§1)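 Lung cancer cell lines in 1536-well plates got either a single drug or a fixed anchor-drug dose together with five library-drug doses (not always all listed) in √10 steps, by pin tool, on the day after seeding. Nuclei were counted after 5 days, and relative viability is the treated-to-vehicle ratio of nuclei counts. Values are medians of duplicate plates.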

[2] = compound: CS(=O)(=O)N1CCN(Cc2cc3nc(-c4cccc5[nH]ncc45)nc(N4CCOCC4)c3s2)CC1 [Pictilisib] + O=C(c1cc(Cc2n[nH]c(=O)c3ccccc23)ccc1F)N1CCN(C(=O)C2CC2)CC1 [Olaparib] (partner 8 µM)
Outline: as §1

[3] = compound: NC1(c2ccc(-c3nc4ccn5c(=O)[nH]nc5c4cc3-c3ccccc3)cc2)CCC1 [MK-2206] + COc1cc2c(Oc3ccc(NC(=O)C4(C(=O)Nc5ccc(F)cc5)CC4)cc3F)ccnc2cc1OCCCN1CCOCC1 [Foretinib] (partner 0.25 µM)
Outline: as §1

[4] = compound: NC1(c2ccc(-c3nc4ccn5c(=O)[nH]nc5c4cc3-c3ccccc3)cc2)CCC1 [MK-2206] + C[C@@H](Oc1cc(-c2cnn(C3CCNCC3)c2)cnc1N)c1c(Cl)ccc(F)c1Cl [Crizotinib] (partner 1 µM)
Outline: as §1

[5] = compound: NC1(c2ccc(-c3nc4ccn5c(=O)[nH]nc5c4cc3-c3ccccc3)cc2)CCC1 [MK-2206] + NC(=O)Nc1cc(-c2cccc(F)c2)sc1C(=O)N[C@H]1CCCNC1 [AZD7762] (partner 0.2 µM)
Outline: as §1

Cell Line	relative viability ([1]; first compound 0.02 µM)	relative viability ([1]; first compound 0.06325 µM)	relative viability ([1]; first compound 0.6325 µM)	relative viability ([1]; first compound 2 µM)	relative viability ([2]; first compound 0.02 µM)	relative viability ([2]; first compound 0.06325 µM)	relative viability ([2]; first compound 0.6325 µM)	relative viability ([2]; first compound 2 µM)	relative viability ([3]; first compound 0.01 µM)	relative viability ([3]; first compound 0.03162 µM)	relative viability ([3]; first compound 0.3162 µM)	relative viability ([3]; first compound 1 µM)	relative viability ([4]; first compound 0.01 µM)	relative viability ([4]; first compound 0.03162 µM)	relative viability ([4]; first compound 0.3162 µM)	relative viability ([4]; first compound 1 µM)	relative viability ([5]; first compound 0.01 µM)	relative viability ([5]; first compound 0.03162 µM)	relative viability ([5]; first compound 0.3162 µM)	relative viability ([5]; first compound 1 µM)
HOP-62	1.03	0.868	0.759	0.779	0.389	0.556	0.512	0.446	1.09	1.16	1.15	1.06	1.04	0.945	0.903	1.03	0.734	0.336	0.437	0.71
LC-2-ad	0.848	0.801	0.326	0.36	0.745	0.758	0.788	0.656	0.864	0.952	0.846	0.889	0.494	0.453	0.435	0.42	0.815	0.868	0.889	0.782
LCLC-97TM1	0.17	0.161	0.189	0.17	0.446	0.379	0.289	0.112	0.881	0.929	0.887	0.804	0.34	0.329	0.303	0.284	0.294	0.12	0.285	0.333
LCLC-103H	1.14	1.14	0.814	0.716	0.722	0.851	0.701	0.475	0.867	0.792	0.669	0.698	0.989	0.963	0.99	1.04	0.751	0.818	0.765	0.712
LK-2	0.609	0.537	0.526	0.426	0.523	0.588	0.485	0.304	1.57	1.19	1.34	1.39	0.211	0.236	0.229	0.211	0.325	0.312	0.259	0.182
LOU-NH91	1.02	0.918	0.798	0.557	0.946	0.908	0.875	0.695	0.984	0.958	0.927	0.917	0.709	0.727	0.72	0.715	0.8	0.751	0.705	0.605
LU99A	0.576	0.468	0.326	0.244	0.273	0.301	0.254	0.216	0.805	0.774	0.847	0.816	0.609	0.647	0.524	0.535	0.376	0.169	0.332	0.362
LXF-289	0.989	0.95	0.973	0.771	1.1	1.14	1.03	0.631	0.932	0.941	1.01	1.05	0.786	0.819	0.841	0.888	1.06	1.01	1.12	1.15
NCI-H23	0.632	0.641	0.605	0.423	0.298	0.389	0.355	0.198	1.1	1.11	1.05	0.902	0.563	0.619	0.53	0.543	0.333	0.192	0.188	0.229
NCI-H322M	0.82	0.837	0.623	0.656	0.76	0.838	0.756	0.525	0.871	1.11	1.1	1.01	0.934	0.986	0.941	0.979	0.58	0.576	0.563	0.516
NCI-H358	0.681	0.685	0.464	0.393	0.627	0.729	0.479	0.271	0.767	0.841	0.661	0.685	0.773	0.638	0.563	0.562	0.628	0.423	0.552	0.609
NCI-H1395	1.15	1.11	0.836	0.597	0.514	0.439	0.367	0.367	1.03	0.966	0.885	0.922	–	–	–	–	0.407	0.369	0.388	0.351
NCI-H1792	0.502	0.547	0.446	0.262	0.386	0.294	0.261	0.0715	–	–	–	–	0.968	1	0.999	0.944	0.613	0.702	0.529	0.293
NCI-H1793	0.829	0.819	0.554	0.336	0.812	0.613	0.331	0.167	0.786	0.779	0.834	0.578	–	–	–	–	0.679	0.232	0.243	0.251
NCI-H2170	–	–	–	–	0.608	0.508	0.562	0.33	1.06	1.04	1.02	1.02	1.17	1.41	1.21	1.18	0.874	0.765	0.812	0.837
NCI-H2342	–	–	–	–	0.446	0.379	0.406	0.242	0.985	1.13	1	0.901	–	–	–	–	0.527	0.478	0.423	0.376
SW 900	–	–	–	–	0.793	0.818	0.713	0.471	0.864	0.936	0.882	0.769	–	–	–	–	0.531	–	0.591	0.728
